Assay results as given in publication PMC9468151, “Identification of a binding site on soluble RANKL that can be targeted to inhibit soluble RANK-RANKL interactions and treat osteoporosis” (Nature Communications, 2022).
“And” between values parts separate entries of the source, which are not always exact repeats. Equal values may be shown once.

Tests used:
[1] = molecular target: T1, sRANKL (Rattus norvegicus, UniProt Q9ESE2, D175N); test: STD NMR binding assay with sRANKL; settings: 100 μM protein, 5 mM compound
T1 construct: (1) sRANKL (rat 159-318 aa); His6-sumo (N, cleaved yes); made in house; host or cells: Escherichia coli BL21 (DE3)
T1 sequence (Q9ESE2 159-318 D175N): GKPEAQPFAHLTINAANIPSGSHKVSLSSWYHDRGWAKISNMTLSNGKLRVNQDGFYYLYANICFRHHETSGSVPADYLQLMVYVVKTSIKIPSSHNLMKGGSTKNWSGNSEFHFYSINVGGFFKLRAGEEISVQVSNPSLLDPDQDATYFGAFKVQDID
Experimental: For NMR studies, purified sRANKL or L-RANKL protein samples were buffer exchanged into PBS (Gbico, C10010500BT, pH7.4) using a Millipore spin column (1500 × g for 15 min at 4 °C, repeated six times, each time adding fresh PBS and discarding the flow-through). Protein concentration was determined using BCA method according to the procedure of Pierce^TM BCA Protein Assay Kit (Thermo Fisher Scientific). Compound S3-15 powder was dissolved in H2O as a concentration of 10 mM.
Protein saturation transfer difference (STD) experiments were performed on Bruker Avance III 500 (500 MHz) spectrometer (Columbia University) at 300 K using triple-resonance cryogenic probes optimized for proton detection. All experiments were performed using an independent sample for each experimental measurement as a 500 μL sample in NMR tubes with 100 μM protein and […] S3-15 in final concentration. Uniformly, for STD assay all samples were contained 50 μL protein, 200 μL S3-15 (10 mM in H2O), and 250 μL D2O; for S3-15 two-dimensional spectra reference, samples were 50 μL PBS, 200 μL S3-15 (10 mM in H2O) and 250 μL D2O.

[2] = molecular target: mouse mRANKL and mouse OPG (Mus musculus, UniProt O35235); test: mRANKL-OPG binding, HEK 293T cells with full length mouse RANKL; assay type: cell-based
Chain of mouse mRANKL and mouse OPG (O35235 whole entry): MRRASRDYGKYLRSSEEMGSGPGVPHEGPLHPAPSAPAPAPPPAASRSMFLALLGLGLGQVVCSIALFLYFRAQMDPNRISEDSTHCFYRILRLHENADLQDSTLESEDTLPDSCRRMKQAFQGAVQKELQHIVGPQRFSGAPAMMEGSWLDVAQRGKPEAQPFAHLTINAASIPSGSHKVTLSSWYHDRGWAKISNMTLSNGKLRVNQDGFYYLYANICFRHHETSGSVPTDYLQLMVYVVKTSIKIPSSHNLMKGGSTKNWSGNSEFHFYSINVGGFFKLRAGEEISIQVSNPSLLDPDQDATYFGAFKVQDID
Experimental: mRANKL-OPG: MC3T3-E1 cells were differentiated by osteoblast differentiation medium (Pythonbio, China) for 2 days. Then cells were exposed to 1 M NaCl for 5 minutes to remove endogenous OPG, washed once in PBS, and fixed with 70% ethanol for 5 minutes at 4 °C. Fixed cells were wash once by PBS and then exposed to PBS that containing 100 ng mouse OPG (Sino, China) or 100 ng mouse OPG with 1 μM S3-15 and incubated for an additional 30 min at 4 °C. Cell layers were washed 2 times with PBS and lysed with 1% triton in PBS. The concentration of OPG in cell lysates were measured with an OPG ELISA kit (USCN, China). Similar proceed were performed using HEK 293 T cells that transfer full length mouse RANKL or human RANKL.

[3] = tested on: WT sRANKL or Q238A sRANKL induced osteoclast formation; test: Rescue experiment: osteoclast formation induced by WT or Q238A sRANKL; assay type: cell-based, mouse
Experimental: For the osteoclast formation induced by WT and Q238A sRANKL experiments, BMMs were seeded in 96-well plate in density of 6 × 10^3 cell/ well with α-MEM completed medium containing 10 ng/mL M-CSF for 24 h. Then the cells were treated with 0 μM, 0.3 μM, 3 μM and 10 μM and stimulated with 100 ng/mLWT sRANKL or Q238A sRANKL respectively. For the osteoclast formation induced by WT, W194A, and H226A sRANKL experiments, cells were stimulated with 100 ng/mL WT sRANKL combined W194A, H226A sRANKL in different concentrations (50 ng/mL, 200 ng/mL, and 400 ng/mL) with or without 10 μM S3-15. After 5 days, osteoclasts were formed, and applied TRAP-staining as described above. TRAP-positive multinucleated cells with > 3 nuclei were scored as osteoclasts.

[4] = tested on: OVX mice; test: Splenic lymphocyte transformation test; assay type: in vivo, mouse; design: key: OD (MTT) of stimulated minus unstimulated cells; settings: OVX mice + S3-15 4 weeks, individual animals
Experimental: Spleens were aseptically isolated from sham group, OVX group and OVX treatment group after treating S3-15 for 4 weeks in a clean bench (II Class biosafety Cabinets, Escolifesciences, Singapore). Splenic single cell suspensions were obtained by gentle squeezing spleen tissue by injecting 2 mL cold Hank’s solution. Splenic cells were filtered through 40 μm nylon filters (BD Biosciences, Darmstadt, Germany), and centrifuged at 1400 × g for 10 min. Then cells were resuspended in 1640 completed medium (containing 10%FBS, 1% penicillin/streptomycin, 1% glutamine (200 mmol/L) and 5 × 10^−5 mol/L 2-mercaptoethanol) with a concentration of 5 × 10^6 cells/mL and seeded 100 μL into 96-well plates. Two wells for each mouse, and one well stimulated with 50 μL […] (Sigma-Aldrich®, Germany) solution (working concentration 7.5 μg/mL in 1640 completed medium), another well added 50 μL 1640 complete medium as a control. After that, the plates were incubated at 37 °C in a CO2 incubator at 5% CO2 for 72 h. After stimulation, cells were measured by MTT method. Stimulation of cell proliferation ability was determined as the absorbance (OD) value of stimulated minus unstimulated cells for each cell sample.

CC(=O)/C(=N\Nc1ccccc1C(=O)O)C(=O)Nc1ccccn1 [S3-15]
STD-NMR binding to sRANKL [1]: binds to sRANKL
mouse mRANKL and mouse OPG binding ([2]; 293T cells, 1 μM): no effects
mRANKL-OPG binding signal (fig. S4o) ([2]; OPG+S3-15): 0.9339 and 0.9921 and 0.6577
osteoclastogenesis when incubated with Q238A sRANKL ([3]; Q238A sRANKL): cannot block osteoclastogenesis
Number of OCs ([3]; Q238A sRANKL 100 ng/mL, S3-15 0.3 μM): 268 and 278 and 265
Number of OCs ([3]; Q238A sRANKL 100 ng/mL, S3-15 3 μM): 250 and 279 and 269
Number of OCs ([3]; Q238A sRANKL 100 ng/mL, S3-15 10 μM): 265 and 279 and 270
Number of OCs ([3]; WT RANKL 100 ng/mL, S3-15 0.3 μM): 142 and 135 and 149
Number of OCs ([3]; WT RANKL 100 ng/mL, S3-15 3 μM): 35 and 57 and 40
Spleen lymphocyte transforming index [4]: 0.337 and 0.404 and 0.3367 and 0.4323 and 0.2993 and 0.3783 and 0.2337 and 0.316
